Measurements: patent publication US20130287890A1, “INHIBITOR OF THE PRODUCTION OF ADVANCED GLYCATION END PRODUCTS” (UENO FINE CHEMICALS INDUSTRY, LTD., priority 2012, published 2013)

Assays:
Assay type in all cases: biochemical
[1] = tested on: fluorescent AGEs; test: Quantitative determination of fluorescent AGEs (relative to perylene) after reaction at 120° C. for 60 minutes; conditions: for Fluorescent AGEs: 120° C., 60 minutes
Method: Amino acids, carbohydrates and a phosphate buffer solution were charged in a 30 mL glass test tube in each amount shown in Table 1, followed by sealing and stirring. […] The filtrate thus obtained was used as a sample. The amino acids and carbohydrates used are as follows. After weighing 2.5 mg of a standard substance perylene, the standard substance perylene was fully dissolved in 50 mL of deaerated ethanol added thereto to prepare a perylene solution. The perylene solution diluted to the concentration of 10 μM was exposed to excitation light with a wavelength of 386 nm and then the area was calculated by measuring a fluorescence intensity ranging from 410 to 600 nm. […] Food-derived proteins, carbohydrates and a phosphate buffer solution were charged in a 30 mL glass test tube in each amount shown in Table 6, followed by sealing and stirring, and then the mixture was reacted in an autoclave at 120° C. for 60 minutes. Next, the reactant was fractionated by centrifugation at 3,000 rpm for 3 hours using an ultrafiltration unit (VIVA SPIN 20, manufactured by Sartorius Corporation). […] Food-derived proteins and carbohydrates used are as follows: After 0.4 g of a high molecular weight fraction and 8 mL of 6N hydrochloric acid were charged in an ampule and the air in the ampule was replaced with nitrogen, hydrolysis was performed at 110° C. for 16 hours in a heat block. After reaction, 8 mL of 5N sodium hydroxide was added, and pH was adjusted using 1N hydrochloric acid and 1N sodium hydroxide to make pH within a range of 7.2 to 7.6. […] Using the thus obtained filtrate as a sample, fluorescent AGEs were quantitatively determined using the following methods. After weighing 2.5 mg of a standard substance perylene, the standard substance perylene was fully dissolved in 10 mL of deaerated ethanol added thereto to prepare a perylene solution. The perylene solution diluted to the concentration of 10 μM was exposed to excitation light with a wavelength of 386 nm and then the area was calculated by measuring a fluorescence intensity ranging from 410 to 600 nm.

[2] = tested on: pentosidine; test: Quantitative determination of pentosidine (FSK Pentosidine kit) after reaction at 120° C. for 60 minutes; conditions: Test Example 1; for Pentosidine: lysine + arginine 0.2 g each, carbohydrate 3.40 g each, 120° C., 60 minutes
Method: Amino acids, carbohydrates and a phosphate buffer solution were charged in a 30 mL glass test tube in each amount shown in Table 1, followed by sealing and stirring. […] The filtrate thus obtained was used as a sample. The amino acids and carbohydrates used are as follows. Using a pentosidine measurement kit “FSK Pentosidine (registered trademark)” (manufactured by Fushimi Pharmaceutical Co., Ltd.), quantitative determination of pentosidine was performed. Thirty (30) or more minutes before use, reagents and pentosidine solid-phase plates were put to room temperature. After dilution of the sample, a 50 μL aliquot of the sample was dispensed to a pentosidine solid plate attached to the kit, and 50 μL of a first antibody solution was dispensed into wells other than the wells for measurement of reagent blank value. After the sample and the antibody solution were mixed by shaking the plate at 300 rpm for 1 minute, the solution was reacted at 37° C. for 1 hour. Next, the reaction solution was discarded, and 200 μL of rinsing fluid was dispensed to wash the plate. The washing was performed for 3 times. After liquid on the plate was removed, 100 μL of a second antibody solution was dispensed into wells other than the wells for measurement of reagent blank value. After the solution was mixed by shaking the plate at 300 rpm for 1 minute, the solution was reacted at 25° C. for 1 hour. Then, the reaction solution was discarded, and the plate was washed for 3 times with 200 μL of rinsing fluid again. Liquid on the plate was removed, and 100 μL of a color coupler was dispensed and left to stand for 10 minutes under a light shielding condition. Finally, 100 μL of a reaction stop solution was dispensed, and within 10 minutes after the dispensing, measurement was performed at main wavelength 450 nm/reference wavelength 630 nm using a micro-plate reader. The concentration of pentosidine was determined using the calibration curve of a pentosidine standard solution, based on measurement values of the sample.

[3] = tested on: CML; test: Quantitative determination of CML (CircuLex ELISA kit) after reaction at 120° C. for 60 minutes; conditions: Test Example 1; for CML: lysine + arginine 0.2 g each, carbohydrate 3.40 g each, 120° C., 60 minutes
Method: Amino acids, carbohydrates and a phosphate buffer solution were charged in a 30 mL glass test tube in each amount shown in Table 1, followed by sealing and stirring. […] The filtrate thus obtained was used as a sample. The amino acids and carbohydrates used are as follows. Using CircuLex CML/Nε-(carboxymethyl) lysine ELISA kit (manufactured by CycLex Co., Ltd.), quantitative determination of CML was performed. Thirty (30) or more minutes before use, reagents and CML solid-phase wells were put to room temperature. […] By performing dilution with standard dilution buffers, standards 1 to 7 were prepared. The sample was diluted as necessary with sample dilution buffers. A CML-HSA standard and 60 μL of the sample were dispensed into a 96-well plate, which is not an accessory to the kit. Next, ultrapure water (Milli-Q water) was added to a first antibody powder, and by diluting with sample dilution buffers, a first antibody solution was prepared, and then 60 μL of the antibody solution was dispensed into the plate and mixed. […] Then, the reaction solution was discarded, and 350 μL of rinsing fluid was dispensed to wash the plate. The washing was performed for 4 times. After liquid on the plate was removed, 100 μL of a second antibody solution was dispensed and reacted at 25° C. for 1 hour while being shaken at 300 rpm. The reaction solution was discarded, and the plate was washed for 4 times with 350 μL of rinsing fluid again. Liquid on the plate was removed, and 100 μL of a color coupler was dispensed. Then, the solution was left to stand for 10 minutes under a light shielding condition while being shaken at 300 rpm. Finally, 100 μL of a reaction stop solution was dispensed, and within 30 minutes after the dispensing, measurement was performed at main wavelength 450 nm/reference wavelength 595 nm using a micro-plate reader. The concentration of CML was determined using the calibration curve of a CML standard solution, based on measurement values of the sample.

[4] = Test Example 1, lysine + arginine 0.2 g each, carbohydrate 3.40 g each
[5] = Test Example 2, gliadin 0.1 g + carbohydrate 3.4 g
[6] = Test Example 2, lactalbumin 0.05 g + carbohydrate 3.4 g
[7] = Test Example 2, lactic casein 0.01 g + carbohydrate 3.4 g
[8] = Test Example 2, ovalbumin 0.05 g + carbohydrate 3.4 g
[9] = Test Example 2, soybean casein 0.01 g + carbohydrate 3.4 g
[10] = amino acids, compared with the test section 1 containing only sucrose

| SMILES | production of fluorescent AGEs ([1]; Test Example 1, amino acids, compared with the test section 1 containing only sucrose) | Fluorescent AGEs [1, 4] | Fluorescent AGEs [1, 5] | Fluorescent AGEs [1, 6] | Fluorescent AGEs [1, 7] | Fluorescent AGEs [1, 8] | production of AGEs ([1]; Test Example 2, ovalbumin, lactalbumin, gliadin, lactic casein and soybean casein, compared with sections containing sucrose) | Fluorescent AGEs [1, 9] | production of pentosidine [2, 10] | Pentosidine [2] | production of CML [3, 10] | CML [3] |
| --- | --- | --- | --- | --- | --- | --- | --- | --- | --- | --- | --- | --- |
| OC[C@@H](O)[C@@H](O[C@H]1O[C@H](CO)[C@@H](O)[C@H](O)[C@H]1O)[C@H](O)[C@@H](O)CO [Maltitol] | decreased | 39 nmol/1 g of amino acid | 632 nmol/1 g of protein | 105 nmol/1 g of protein | 84 nmol/1 g of protein | 136 nmol/1 g of protein | decreased | 20 nmol/1 g of protein | decreased | 3.4 nmol/1 g of amino acid | decreased | 15.0 nmol/1 g of amino acid |
| OC[C@H]1O[C@@](CO)(O[C@H]2O[C@H](CO)[C@@H](O)[C@H](O)[C@H]2O)[C@@H](O)[C@@H]1O [Sucrose, reference compound] | – | 79 nmol/1 g of amino acid | 649 nmol/1 g of protein | 119 nmol/1 g of protein | 100 nmol/1 g of protein | 168 nmol/1 g of protein | – | 18 nmol/1 g of protein | – | 8.4 nmol/1 g of amino acid | – | 17.4 nmol/1 g of amino acid |
